Source: US12168664B2, “Triazolopyrimidines, their preparation and use” (THE TRUSTEES OF COLUMBIA UNIVERSITY IN THE CITY OF NEW YORK, priority 2018, dated 2024)
pIC50: −log10 of the molar value. Values joined by “and” are separate entries in the source; they are usually repeats but may differ in a detail not shown here. Identical values can stand only once.

Experiments:
RBP4-TTR interaction = RBP4-TTR interaction (Homo sapiens (Human), UniProt P02753); experiment: HTRF (TR-FRET) assay for antagonists of retinol-induced RBP4-TTR interaction; assay type: biochemical; conditions: in the presence of 1 μM retinol
Description: TR-FRET Assay for Retinol-Induced RBP4-TTR Interaction
Binding of a desired RBP4 antagonist displaces retinol and induces hindrance for RBP4-TTR interaction resulting in the decreased FRET signal (FIG. 7). Bacterially expressed MBP-RBP4 and untagged TTR were used in this assay. For the use in the TR-FRET assay, the maltose binding protein (MBP)-tagged human RBP4 fragment (amino acids 19-201) was expressed in the Gold(DE3)pLysS E. coli strain (Stratagene) using the pMAL-c4x vector. Following cell lysis, recombinant RBP4 was purified from the soluble fraction using the ACTA FPLC system (GE Healthcare) equipped with the 5-ml the MBP Trap HP column. Human untagged TTR was purchased from Calbiochem. Untagged TTR was labeled directly with Eu^3+ Cryptate-NHS using the HTRF Cryptate Labeling kit from CisBio following the manufacturer's recommendations. HTRF assay was performed in white low volume 384 well plates (Greiner-Bio) in a final assay volume of 16 μl per well. […] Titration of test compounds in this assay was conducted in the presence of 1 μM retinol. […] TR-FRET signal was measured in the SpectraMax M5e Multimode Plate Reader (Molecular Device). […] The TR-FRET signal was expressed as the ratio of fluorescence intensity: Flu665/Flu620×10,000.
(§1) The compounds listed below were tested in two in vitro assays, RBP4 binding (SPA) and retinol-dependent RBP4-TTR interaction (HTRF) (Table 1).

human RBP4 = human RBP4 (Homo sapiens (Human), UniProt P02753); experiment: SPA binding assay for RBP4 (scintillation proximity, 3H-retinol displacement); conditions: 10 nM 3H-retinol, 50 nM biotinylated RBP4
Description: Scintillation Proximity RBP4 Binding Assay
Untagged human RBP4 purified from the urine of tubular proteinuria patients was purchased from Fitzgerald Industries International. It was biotinylated using the EZ-Link Sulfo-NHS-LC-Biotinylation kit from Pierce following the manufacturer's recommendations. […] Nonspecific binding was determined in the presence of 20 μM of unlabeled retinol. The reaction mix was assembled in the dark under dim red light. The plates were sealed with clear tape (TopSeal-A: 96-well microplate, PerkinElmer), wrapped in the aluminum foil, and allowed to equilibrate 6 hours at room temperature followed by overnight incubation at +4° C. Radiocounts were measured using a TopCount NXT counter (Packard Instrument Company).
as §1

CYP3A4 = CYP3A4 (Homo sapiens (Human), UniProt P08684); experiment: CYP inhibition, fluorescent, CYP3A4; assay type: in vitro ADME
Description: (§2) The compounds listed below were tested in various metabolic stability and CYP inhibition assays.

PPARγ = PPARγ (Homo sapiens (Human), UniProt P37231); experiment: PPARγ agonist assay (HTRF, PPARγ-NCOR interaction); assay type: biochemical; conditions: read-out: PPAR γ assay (HTRF) for agonists of this nuclear receptor - IC50
Description: Significant safety issues are associated with the clinical use of PPARγ agonists (increased risk of death, myocardial infarction, stroke, congestive heart failure, hepatotoxicity, peripheral edema, weight gain and carcinogenicity^1-4). We wanted to characterize the compounds we identified in a pilot screen as potential PPARγ agonists. The PPARγ assay is based on agonist-sensitive interaction of the GST-tagged ligand-binding domain (LRD) of the nuclear receptor PPARγ with the biotinylated corepressor NCOR peptide (FIG. 8).
Assay reactions are performed in a final volume of 16 ul.
In well of the 384-well assay plate, mix 6 ul of PPARγ solution, 4 ul of NCOR2 solution and 4 μl of Rosi solution. Test compounds diluted from DMSO stocks to 4× assay concentration in 1×HTRF, 100 mM KF buffer may be dispensed to well instead of Rosi. Negative control wells contained DMSO solvent alone; positive control well contained […]. […] Two μl of detection mix was added per well. […] The plate was incubated for 16 hrs at 4° C.
HTRF signal was measured in the SpectraMax M5e Multimode Plate Reader (Molecular Device). Fluorescence was excited at 337 nm. […] The signal was expressed as the ratio of fluorescence intensity: Flu668/Flu620×10,000. […]

CYP2C9 = CYP2C9 (Homo sapiens (Human), UniProt P11712); experiment: CYP inhibition, fluorescent, CYP2C9; assay type: in vitro ADME
Description: as §2

serum RBP4 = serum RBP4 (Mus musculus (Mouse), UniProt Q00724); experiment: Serum RBP4 reduction in Balb/c mice after a single oral administration; assay type: in vivo; conditions: at 6 hr timepoint
Description: Pharmacodynamic Studies of 7a and 7p in Balb/c Mice Following a Single Oral Administration
Animal protocols were approved by the Institutional Animal Care and Use Committee of Columbia University and complied with guidelines set forth by The Association for Research in Vision and Ophthalmology. Compounds were prepared as a suspension in 0.9% NaCl, 2% Tween 80 for oral administration. Compounds were administered to Balb/c mice in a volume of 100 μL through oral gavage. The doses used were 15 mg/kg, 25 mg/kg and 35 mg/kg for 7a while two doses, 25 mg/kg and 35 mg/kg, were tested for DENG-31(FFB-0000082). Blood samples were collected at pre-dose and 1 hr, 2 hr, 4 hr, 6 hr, 8 hr, and 24 hr timepoints. Whole blood was drawn into a centrifuge tube and was let clot at room temperature for 30 min followed by centrifugation at 2,000×g for 15 minutes at +4° C. to collect serum. Serum RBP4 was measured using the RBP4 (mouse/rat) dual ELISA kit (AdipoGen) following the manufacturer's instructions.
In order to attain this objective, the effect of oral compound administration was studied in mice. Three doses of compound 7a and two doses of 7p were tested in Balb/c mice assay for reduction of serum RBP4.

CYP2C19 = CYP2C19 (Homo sapiens (Human), UniProt P33261); experiment: CYP inhibition, fluorescent, CYP2C19; assay type: in vitro ADME
Description: as §2

[1] = Metabolic stability in liver microsomes (HLM); assay type: in vitro ADME, human
Description: as §2

CYP2D6 = CYP2D6 (Homo sapiens (Human), UniProt P10635); experiment: CYP inhibition, fluorescent, CYP2D6; assay type: in vitro ADME
Description: as §2

Sequence of PPARγ (P37231 204-505): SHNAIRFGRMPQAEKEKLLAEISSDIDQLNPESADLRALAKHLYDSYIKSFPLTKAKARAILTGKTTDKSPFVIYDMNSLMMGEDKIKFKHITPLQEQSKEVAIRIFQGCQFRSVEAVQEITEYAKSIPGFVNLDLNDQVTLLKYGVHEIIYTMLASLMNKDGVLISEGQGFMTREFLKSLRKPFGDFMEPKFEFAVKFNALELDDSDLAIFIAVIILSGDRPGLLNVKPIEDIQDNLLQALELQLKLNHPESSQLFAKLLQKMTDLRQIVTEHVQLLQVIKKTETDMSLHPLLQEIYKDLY
Sequence of CYP2C19 (P33261 whole entry, species assumed): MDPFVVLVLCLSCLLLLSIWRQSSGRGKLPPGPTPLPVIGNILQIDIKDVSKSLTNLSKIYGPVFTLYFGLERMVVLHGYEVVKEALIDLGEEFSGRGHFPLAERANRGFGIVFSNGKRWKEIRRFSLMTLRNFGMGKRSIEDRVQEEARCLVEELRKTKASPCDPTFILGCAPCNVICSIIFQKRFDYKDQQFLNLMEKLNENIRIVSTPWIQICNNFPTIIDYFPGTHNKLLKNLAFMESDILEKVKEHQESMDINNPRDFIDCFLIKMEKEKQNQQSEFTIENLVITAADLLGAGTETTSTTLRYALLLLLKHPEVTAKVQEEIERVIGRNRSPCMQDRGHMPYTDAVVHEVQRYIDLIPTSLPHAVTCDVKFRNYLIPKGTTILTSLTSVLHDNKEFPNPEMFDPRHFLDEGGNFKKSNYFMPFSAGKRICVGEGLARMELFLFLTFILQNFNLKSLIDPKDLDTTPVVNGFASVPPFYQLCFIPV
Sequence of CYP3A4 (P08684 whole entry, species assumed): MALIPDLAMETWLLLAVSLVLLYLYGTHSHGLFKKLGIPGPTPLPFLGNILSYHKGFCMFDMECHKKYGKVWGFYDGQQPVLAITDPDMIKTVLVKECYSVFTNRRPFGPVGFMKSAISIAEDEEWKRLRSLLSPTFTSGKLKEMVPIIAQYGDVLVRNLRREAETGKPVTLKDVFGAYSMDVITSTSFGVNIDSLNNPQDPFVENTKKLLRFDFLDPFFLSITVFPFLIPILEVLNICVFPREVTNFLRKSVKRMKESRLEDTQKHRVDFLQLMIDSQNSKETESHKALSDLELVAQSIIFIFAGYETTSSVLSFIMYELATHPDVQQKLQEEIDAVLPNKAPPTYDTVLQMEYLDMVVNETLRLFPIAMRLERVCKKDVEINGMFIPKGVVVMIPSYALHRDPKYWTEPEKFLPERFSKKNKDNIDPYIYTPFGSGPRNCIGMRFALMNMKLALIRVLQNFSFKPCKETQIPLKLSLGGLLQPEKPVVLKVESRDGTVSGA
Sequence of CYP2D6 (P10635 whole entry, species assumed): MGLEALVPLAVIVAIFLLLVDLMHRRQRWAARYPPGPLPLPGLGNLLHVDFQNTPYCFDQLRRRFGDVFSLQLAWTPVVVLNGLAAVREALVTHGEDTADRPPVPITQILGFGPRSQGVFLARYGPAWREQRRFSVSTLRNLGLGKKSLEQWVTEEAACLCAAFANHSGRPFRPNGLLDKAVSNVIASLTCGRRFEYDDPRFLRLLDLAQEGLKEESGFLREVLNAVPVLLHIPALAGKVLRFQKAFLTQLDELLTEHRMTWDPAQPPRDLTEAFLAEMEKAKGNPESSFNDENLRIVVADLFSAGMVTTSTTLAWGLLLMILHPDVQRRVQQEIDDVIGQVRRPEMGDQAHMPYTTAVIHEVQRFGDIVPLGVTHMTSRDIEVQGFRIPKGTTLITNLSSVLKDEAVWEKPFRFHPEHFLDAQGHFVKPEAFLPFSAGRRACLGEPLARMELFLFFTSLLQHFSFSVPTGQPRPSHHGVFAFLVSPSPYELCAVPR
Sequence of CYP2C9 (P11712 whole entry, species assumed): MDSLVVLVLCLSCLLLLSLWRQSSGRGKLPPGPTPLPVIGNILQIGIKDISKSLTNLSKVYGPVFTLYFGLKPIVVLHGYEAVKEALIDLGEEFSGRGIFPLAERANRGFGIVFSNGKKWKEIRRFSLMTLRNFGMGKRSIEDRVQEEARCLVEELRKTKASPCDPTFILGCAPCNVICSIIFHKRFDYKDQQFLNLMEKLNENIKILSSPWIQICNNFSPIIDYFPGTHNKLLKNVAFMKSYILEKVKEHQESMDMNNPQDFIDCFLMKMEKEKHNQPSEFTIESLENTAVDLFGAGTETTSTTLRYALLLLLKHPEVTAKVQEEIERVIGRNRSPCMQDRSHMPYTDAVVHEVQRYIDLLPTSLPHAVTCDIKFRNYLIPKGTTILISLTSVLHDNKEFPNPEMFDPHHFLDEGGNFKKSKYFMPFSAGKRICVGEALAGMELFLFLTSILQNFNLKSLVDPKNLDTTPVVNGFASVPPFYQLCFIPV

| SMILES | pIC50 (RBP4-TTR interaction) | pIC50 (human RBP4) | further results |
| --- | --- | --- | --- |
| O=C(c1nc2ncc(CCO)cn2n1)N1C[C@@H]2CN(c3cc(F)ccc3C(F)(F)F)C[C@@H]2C1 [Compound 7p] | 6.82 | 7.43 | pIC50 (CYP3A4): < 4.70; pIC50 (PPARγ): < 4.00; pIC50 (CYP2C9): < 4.70; maximum serum RBP4 reduction (serum RBP4; single 25 mg/kg PO): 89%; maximum serum RBP4 reduction (serum RBP4; single 35 mg/kg PO): 87%; pIC50 (CYP2C19): < 4.70; Metabolic stability in liver microsomes: % Remaining at 30 min, HLM [1]: 73%; pIC50 (CYP2D6): < 4.70 |
| O=C(c1nc2ncc(CCO)cn2n1)N1C[C@@H]2CN(c3cc(F)ccc3C(F)(F)F)C[C@@H]2C1 [Compound 7q] | 6.31 | 7.51 | pIC50 (PPARγ): < 4.00; Metabolic stability in liver microsomes: % Remaining at 30 min, HLM [1]: 26% |
| O=C(c1c[nH]c2cnccc12)N1C[C@H]2C[C@@H](c3ccccc3C(F)(F)F)C[C@H]2C1 [Compound 8a] | < 4.52 | – | – |
| O=C(c1c[nH]c2ccncc12)N1C[C@H]2C[C@@H](c3ccccc3C(F)(F)F)C[C@H]2C1 [Compound 8b] | < 4.52 | – | – |
| O=C(c1nc2ncccn2n1)N1C[C@H]2C[C@@H](c3ccccc3C(F)(F)C(F)(F)F)C[C@H]2C1 [Compound 9a] | – | 7.56 | – |
| Cc1ccn2c(C(=O)N3C[C@H]4C[C@@H](c5ccccc5OC(F)(F)F)C[C@H]4C3)nnc2n1 [Compound 9c] | 5.95 | 7.08 | – |
| O=C(c1cnc2ncccn12)N1C[C@H]2C[C@@H](c3ccccc3OC(F)(F)F)C[C@H]2C1 [Compound 9d] | 5.84 | 7.06 | – |
| Cc1cnc2nc(C(=O)N3C[C@H]4C[C@@H](c5ccccc5OC(F)(F)F)C[C@H]4C3)nn2c1 [Compound 9f] | 6.35 | 7.24 | – |
| O=C(c1cn2cccnc2n1)N1C[C@H]2C[C@@H](c3ccccc3OC(F)(F)F)C[C@H]2C1 [Compound 9g] | 6.13 | 7.11 | – |
| Cc1ccn2cc(C(=O)N3C[C@H]4C[C@@H](c5ccccc5OC(F)(F)F)C[C@H]4C3)nc2c1 [Compound 9h] | 5.61 | 6.98 | – |
| O=C(c1nc2nc(C(F)(F)F)ccn2n1)N1C[C@H]2C[C@@H](c3ccccc3OC(F)(F)F)C[C@H]2C1 [Compound 9i] | 4.69 | 6.35 | – |
| O=C(c1nc2ncccn2n1)N1C[C@H]2C[C@@H](c3ccccc3OC(F)(F)F)C[C@H]2C1 [Compound 9j] | 6.26 and 6.33 | – | – |
| Cc1ccccc1[C@@H]1C[C@@H]2CN(C(=O)c3nc4ncccn4n3)C[C@@H]2C1 [Compound 10a] | – | 4.83 | – |
| CC(C)c1ccccc1[C@@H]1C[C@@H]2CN(C(=O)c3nc4ncccn4n3)C[C@@H]2C1 [Compound 10c] | 7.39 | – | – |
| O=C(c1nc2ncccn2n1)N1C[C@H]2C[C@@H](c3ccccc3-c3ccccc3)C[C@H]2C1 [Compound 10d] | 6.52 | – | – |
